The NIST ThermoML archive (doi:10.1016/j.jct.2009.11.014)
± gives the expanded uncertainty stated by the source.

Settings: Liquid; for mass density: vibrating tube; for viscosity: Stony Brook Scientific falling needle HPHTV-100 viscometer

CCCCCCn1cc[n+](C)c1.F[B-](F)(F)F [1-hexyl-3-methylimidazolium tetrafluoroborate] gave a mass density (303.15 K, 4000 kPa) of 1143.92 ± 0.96 kg/m3, a mass density (303.15 K, 6000 kPa) of 1144.93 ± 0.96 kg/m3 and a mass density (303.15 K, 8000 kPa) of 1145.93 ± 0.96 kg/m3. For the same molecule, the mass density (303.15 K, 10000 kPa) was 1146.85 ± 0.96 kg/m3, the mass density (303.15 K, 12000 kPa) was 1147.82 ± 0.96 kg/m3 and the mass density (303.15 K, 14000 kPa) was 1148.83 ± 0.96 kg/m3. For the same molecule, the mass density (303.15 K, 20000 kPa) was 1151.57 ± 0.96 kg/m3, the mass density (303.15 K, 30000 kPa) was 1156.18 ± 0.95 kg/m3 and the mass density (303.15 K, 40000 kPa) was 1160.55 ± 0.96 kg/m3. The mass density (303.15 K, 50000 kPa) was 1164.76 ± 0.96 kg/m3, the mass density (303.15 K, 60000 kPa) was 1168.87 ± 0.96 kg/m3 and the mass density (308.15 K, 100 kPa) was 1138.53 ± 0.96 kg/m3. The mass density (308.15 K, 2000 kPa) was 1139.5 ± 0.96 kg/m3, the mass density (308.15 K, 4000 kPa) was 1140.49 ± 0.95 kg/m3 and the mass density (308.15 K, 6000 kPa) was 1141.48 ± 0.95 kg/m3. The mass density (308.15 K, 8000 kPa) was 1142.48 ± 0.95 kg/m3, the mass density (308.15 K, 10000 kPa) was 1143.45 ± 0.95 kg/m3 and the mass density (308.15 K, 12000 kPa) was 1144.45 ± 0.95 kg/m3. For the same molecule, the mass density (308.15 K, 14000 kPa) was 1145.41 ± 0.95 kg/m3, the mass density (308.15 K, 20000 kPa) was 1148.24 ± 0.95 kg/m3 and the mass density (308.15 K, 30000 kPa) was 1152.83 ± 0.95 kg/m3. For the same molecule, the mass density (308.15 K, 40000 kPa) was 1157.26 ± 0.95 kg/m3, the mass density (308.15 K, 50000 kPa) was 1161.57 ± 0.95 kg/m3 and the mass density (308.15 K, 60000 kPa) was 1165.72 ± 0.95 kg/m3. For the same molecule, the viscosity (308.25 K, 1850 kPa) was 114.6 ± 14 mPa·s, the viscosity (308.35 K, 14230 kPa) was 131.8 ± 15 mPa·s and the viscosity (308.48 K, 12350 kPa) was 128.7 ± 14 mPa·s. The viscosity (308.55 K, 10300 kPa) was 125.6 ± 14 mPa·s, the viscosity (308.59 K, 8230 kPa) was 122.7 ± 14 mPa·s and the viscosity (308.65 K, 110 kPa) was 112.3 ± 12 mPa·s. For the same molecule, the viscosity (308.65 K, 800 kPa) was 113 ± 12 mPa·s, the viscosity (308.65 K, 1730 kPa) was 114.4 ± 14 mPa·s and the viscosity (308.65 K, 2760 kPa) was 115.1 ± 13 mPa·s. The viscosity (308.65 K, 4300 kPa) was 117.5 ± 13 mPa·s, the viscosity (308.65 K, 6380 kPa) was 120.2 ± 13 mPa·s and the mass density (313.15 K, 100 kPa) was 1135.1 ± 0.95 kg/m3. It also gave a mass density (313.15 K, 2000 kPa) of 1136.08 ± 0.95 kg/m3, a mass density (313.15 K, 4000 kPa) of 1137.11 ± 0.95 kg/m3 and a mass density (313.15 K, 6000 kPa) of 1138.14 ± 0.95 kg/m3. It also gave a mass density (313.15 K, 8000 kPa) of 1139.15 ± 0.95 kg/m3, a mass density (313.15 K, 10000 kPa) of 1140.14 ± 0.95 kg/m3 and a mass density (313.15 K, 12000 kPa) of 1141.13 ± 0.95 kg/m3. It also gave a mass density (313.15 K, 14000 kPa) of 1142.09 ± 0.95 kg/m3, a mass density (313.15 K, 20000 kPa) of 1144.98 ± 0.94 kg/m3 and a mass density (313.15 K, 30000 kPa) of 1149.62 ± 0.94 kg/m3. It also gave a mass density (313.15 K, 40000 kPa) of 1154.1 ± 0.94 kg/m3, a mass density (313.15 K, 50000 kPa) of 1158.44 ± 0.95 kg/m3 and a mass density (313.15 K, 60000 kPa) of 1162.62 ± 0.95 kg/m3. It also gave a mass density (318.15 K, 100 kPa) of 1131.72 ± 0.95 kg/m3, a mass density (318.15 K, 2000 kPa) of 1132.7 ± 0.95 kg/m3 and a mass density (318.15 K, 4000 kPa) of 1133.74 ± 0.95 kg/m3. The mass density (318.15 K, 6000 kPa) was 1134.77 ± 0.95 kg/m3, the mass density (318.15 K, 8000 kPa) was 1135.78 ± 0.95 kg/m3 and the mass density (318.15 K, 10000 kPa) was 1136.79 ± 0.95 kg/m3. The mass density (318.15 K, 12000 kPa) was 1137.78 ± 0.95 kg/m3, the mass density (318.15 K, 14000 kPa) was 1138.79 ± 0.95 kg/m3 and the mass density (318.15 K, 20000 kPa) was 1141.71 ± 0.95 kg/m3. It also gave a mass density (318.15 K, 30000 kPa) of 1146.4 ± 0.94 kg/m3, a mass density (318.15 K, 40000 kPa) of 1150.92 ± 0.98 kg/m3 and a mass density (318.15 K, 50000 kPa) of 1155.3 ± 0.95 kg/m3. For the same molecule, the mass density (318.15 K, 60000 kPa) was 1159.5 ± 0.95 kg/m3, the viscosity (319.85 K, 2700 kPa) was 70.1 ± 8.1 mPa·s and the viscosity (319.89 K, 110 kPa) was 67.7 ± 7.9 mPa·s. For the same molecule, the viscosity (319.95 K, 700 kPa) was 68.1 ± 7.9 mPa·s, the viscosity (319.95 K, 4470 kPa) was 70.7 ± 8.2 mPa·s and the viscosity (319.95 K, 6480 kPa) was 72.9 ± 8.4 mPa·s. It also gave a viscosity (319.95 K, 14430 kPa) of 77.8 ± 9.1 mPa·s, a viscosity (319.98 K, 3850 kPa) of 70.5 ± 8.2 mPa·s and a viscosity (319.98 K, 12490 kPa) of 76.1 ± 8.9 mPa·s. For the same molecule, the viscosity (319.99 K, 8440 kPa) was 73.7 ± 8.5 mPa·s, the viscosity (320.03 K, 1300 kPa) was 68.2 ± 7.9 mPa·s and the viscosity (320.05 K, 2440 kPa) was 69.2 ± 8 mPa·s. The viscosity (320.05 K, 10500 kPa) was 74.9 ± 8.7 mPa·s, the mass density (323.15 K, 100 kPa) was 1128.3 ± 0.95 kg/m3 and the mass density (323.15 K, 2000 kPa) was 1129.31 ± 0.95 kg/m3. The mass density (323.15 K, 4000 kPa) was 1130.36 ± 0.95 kg/m3, the mass density (323.15 K, 6000 kPa) was 1131.4 ± 0.95 kg/m3 and the mass density (323.15 K, 8000 kPa) was 1132.43 ± 0.95 kg/m3. It also gave a mass density (323.15 K, 10000 kPa) of 1133.45 ± 0.95 kg/m3, a mass density (323.15 K, 12000 kPa) of 1134.46 ± 0.95 kg/m3 and a mass density (323.15 K, 14000 kPa) of 1135.46 ± 0.95 kg/m3. The mass density (323.15 K, 20000 kPa) was 1138.4 ± 0.95 kg/m3, the mass density (323.15 K, 30000 kPa) was 1143.16 ± 0.98 kg/m3 and the mass density (323.15 K, 40000 kPa) was 1147.2 ± 1 kg/m3. The mass density (323.15 K, 50000 kPa) was 1152.14 ± 0.98 kg/m3 and the mass density (323.15 K, 60000 kPa) was 1156.42 ± 0.95 kg/m3.
